The text below walks through data of US12552785B2, “Pyrazolo[1,5-α]pyridine derivative, preparation method therefor, and composition and use thereof” (SHENZHEN ZHONGGE BIOLOGICAL TECHNOLOGY CO., LTD., priority 2020, dated 2026).

One assay concerns the target RET (Homo sapiens, UniProt P07949). Put plainly: HTRF method for testing the inhibitory activity of compounds against RET. The assay is classed as biochemical. As to conditions: IC50 by nonlinear regression, read-out: RET kinase activity. In short, it runs like this: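 Compounds tested at 10 concentrations in 1:3 series, duplicate wells, 0.5% DMSO final; reaction incubated 30 min at room temperature. IC50 obtained by nonlinear regression (variable-slope dose response) of inhibition against log compound concentration.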
(Time-resolved FRET reads energy transfer from a long-lived donor to a nearby acceptor.)

Another assay deals with VEGFR2 (Homo sapiens, UniProt P35968). Put plainly: HTRF method for testing the inhibitory activity of compounds against VEGFR2. The assay is classed as biochemical. Particulars: IC50 by nonlinear regression, read-out: VEGFR2 kinase activity. In short, it runs like this: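 HTRF kinase assay with 10-point, 1:3 compound dilutions prepared in DMSO from 1 mM. The reaction was incubated 40 min at room temperature. IC50 came from nonlinear regression (variable slope) of inhibition against log concentration.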
Sequence of VEGFR2 (P35968 20-1356, species assumed): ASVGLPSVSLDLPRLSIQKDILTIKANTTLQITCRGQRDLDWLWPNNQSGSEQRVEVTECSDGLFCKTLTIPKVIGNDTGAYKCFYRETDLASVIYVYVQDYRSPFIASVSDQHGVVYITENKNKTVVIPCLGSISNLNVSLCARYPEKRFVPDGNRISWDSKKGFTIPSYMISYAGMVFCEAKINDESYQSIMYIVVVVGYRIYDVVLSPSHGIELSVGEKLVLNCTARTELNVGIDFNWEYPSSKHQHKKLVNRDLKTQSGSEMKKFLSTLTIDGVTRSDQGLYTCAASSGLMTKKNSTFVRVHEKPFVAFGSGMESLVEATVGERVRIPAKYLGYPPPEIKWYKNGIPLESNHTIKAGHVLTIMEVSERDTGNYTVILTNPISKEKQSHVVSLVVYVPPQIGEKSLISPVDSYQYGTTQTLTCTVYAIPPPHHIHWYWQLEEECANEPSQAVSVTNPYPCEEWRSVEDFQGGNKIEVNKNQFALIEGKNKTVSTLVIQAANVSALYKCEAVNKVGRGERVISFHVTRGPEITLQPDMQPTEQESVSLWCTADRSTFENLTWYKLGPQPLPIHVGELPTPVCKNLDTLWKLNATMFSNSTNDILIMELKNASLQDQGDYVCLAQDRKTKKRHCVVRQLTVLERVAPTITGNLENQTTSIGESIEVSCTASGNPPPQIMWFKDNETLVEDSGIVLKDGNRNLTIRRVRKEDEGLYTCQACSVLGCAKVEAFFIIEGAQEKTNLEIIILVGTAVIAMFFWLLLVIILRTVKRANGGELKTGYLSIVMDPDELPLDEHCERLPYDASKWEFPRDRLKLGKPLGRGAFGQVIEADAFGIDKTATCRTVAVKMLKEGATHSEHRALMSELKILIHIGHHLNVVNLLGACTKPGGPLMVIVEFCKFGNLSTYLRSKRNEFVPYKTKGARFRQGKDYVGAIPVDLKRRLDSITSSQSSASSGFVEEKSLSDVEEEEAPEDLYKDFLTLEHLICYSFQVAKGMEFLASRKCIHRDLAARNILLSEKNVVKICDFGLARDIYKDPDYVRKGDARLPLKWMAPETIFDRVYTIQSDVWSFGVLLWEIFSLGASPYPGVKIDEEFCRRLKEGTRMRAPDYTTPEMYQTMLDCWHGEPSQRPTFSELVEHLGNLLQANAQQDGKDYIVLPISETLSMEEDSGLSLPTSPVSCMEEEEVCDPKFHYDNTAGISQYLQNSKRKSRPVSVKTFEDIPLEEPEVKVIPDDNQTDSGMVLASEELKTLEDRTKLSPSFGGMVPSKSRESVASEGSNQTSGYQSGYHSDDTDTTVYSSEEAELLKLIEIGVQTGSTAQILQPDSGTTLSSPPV

Another assay deals with T1, Ba/F3-KIF5B-RET cell (Homo sapiens, UniProt P07949).
T1 construct: fused on or other part: P33176 (Kinesin-1 heavy chain)
T1 sequence (P07949 whole entry, change not shown, the tested form may be a part): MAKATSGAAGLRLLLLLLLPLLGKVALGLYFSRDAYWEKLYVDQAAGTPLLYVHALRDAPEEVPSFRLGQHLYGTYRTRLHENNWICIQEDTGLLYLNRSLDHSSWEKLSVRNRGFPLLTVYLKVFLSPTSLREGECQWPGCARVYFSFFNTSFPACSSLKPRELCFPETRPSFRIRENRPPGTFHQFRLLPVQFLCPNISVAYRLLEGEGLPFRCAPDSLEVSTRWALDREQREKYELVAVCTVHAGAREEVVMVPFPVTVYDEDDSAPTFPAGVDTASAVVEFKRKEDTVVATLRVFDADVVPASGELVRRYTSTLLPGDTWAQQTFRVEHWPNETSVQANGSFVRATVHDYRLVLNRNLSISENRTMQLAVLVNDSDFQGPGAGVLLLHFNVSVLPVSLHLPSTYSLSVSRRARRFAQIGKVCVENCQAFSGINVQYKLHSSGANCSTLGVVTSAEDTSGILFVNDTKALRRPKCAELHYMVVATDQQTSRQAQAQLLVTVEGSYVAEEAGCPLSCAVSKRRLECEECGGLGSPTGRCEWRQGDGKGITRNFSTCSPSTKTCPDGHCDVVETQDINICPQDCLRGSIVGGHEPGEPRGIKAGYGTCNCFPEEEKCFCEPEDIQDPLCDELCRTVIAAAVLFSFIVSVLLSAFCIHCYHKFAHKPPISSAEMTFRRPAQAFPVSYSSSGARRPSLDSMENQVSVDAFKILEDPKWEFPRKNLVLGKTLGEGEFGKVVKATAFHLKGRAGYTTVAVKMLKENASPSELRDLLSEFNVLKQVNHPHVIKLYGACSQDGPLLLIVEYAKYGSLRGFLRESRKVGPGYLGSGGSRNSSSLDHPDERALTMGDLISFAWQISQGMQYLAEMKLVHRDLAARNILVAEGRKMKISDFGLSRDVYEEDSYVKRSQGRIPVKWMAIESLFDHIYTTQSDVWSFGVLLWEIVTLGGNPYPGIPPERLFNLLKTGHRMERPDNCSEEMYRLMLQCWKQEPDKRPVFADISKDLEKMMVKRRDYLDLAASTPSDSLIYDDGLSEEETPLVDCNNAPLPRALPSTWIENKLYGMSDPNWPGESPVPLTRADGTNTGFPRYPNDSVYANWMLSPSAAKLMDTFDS
As to the kind of experiment: CellTiter-Glo luminescence assay for inhibitory activity against Ba/F3-KIF5B-RET cell. As to conditions: Ba/F3-KIF5B-RET cells, 72 h. It counts as cell-based. The essentials:
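Ba/F3 cells stably expressing human KIF5B-RET (puromycin-selected) were treated with compounds in a 10-point, 1:3 dilution series from a 2 mM DMSO intermediate. Viability by CellTiter-Glo luminescence; IC50 fitted with a four-parameter logistic equation.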
In general terms: ATP-based viability assays read luminescence as a measure of living cells.

pIC50: −log10 of the molar value.

Sequence of RET (P07949 29-1114): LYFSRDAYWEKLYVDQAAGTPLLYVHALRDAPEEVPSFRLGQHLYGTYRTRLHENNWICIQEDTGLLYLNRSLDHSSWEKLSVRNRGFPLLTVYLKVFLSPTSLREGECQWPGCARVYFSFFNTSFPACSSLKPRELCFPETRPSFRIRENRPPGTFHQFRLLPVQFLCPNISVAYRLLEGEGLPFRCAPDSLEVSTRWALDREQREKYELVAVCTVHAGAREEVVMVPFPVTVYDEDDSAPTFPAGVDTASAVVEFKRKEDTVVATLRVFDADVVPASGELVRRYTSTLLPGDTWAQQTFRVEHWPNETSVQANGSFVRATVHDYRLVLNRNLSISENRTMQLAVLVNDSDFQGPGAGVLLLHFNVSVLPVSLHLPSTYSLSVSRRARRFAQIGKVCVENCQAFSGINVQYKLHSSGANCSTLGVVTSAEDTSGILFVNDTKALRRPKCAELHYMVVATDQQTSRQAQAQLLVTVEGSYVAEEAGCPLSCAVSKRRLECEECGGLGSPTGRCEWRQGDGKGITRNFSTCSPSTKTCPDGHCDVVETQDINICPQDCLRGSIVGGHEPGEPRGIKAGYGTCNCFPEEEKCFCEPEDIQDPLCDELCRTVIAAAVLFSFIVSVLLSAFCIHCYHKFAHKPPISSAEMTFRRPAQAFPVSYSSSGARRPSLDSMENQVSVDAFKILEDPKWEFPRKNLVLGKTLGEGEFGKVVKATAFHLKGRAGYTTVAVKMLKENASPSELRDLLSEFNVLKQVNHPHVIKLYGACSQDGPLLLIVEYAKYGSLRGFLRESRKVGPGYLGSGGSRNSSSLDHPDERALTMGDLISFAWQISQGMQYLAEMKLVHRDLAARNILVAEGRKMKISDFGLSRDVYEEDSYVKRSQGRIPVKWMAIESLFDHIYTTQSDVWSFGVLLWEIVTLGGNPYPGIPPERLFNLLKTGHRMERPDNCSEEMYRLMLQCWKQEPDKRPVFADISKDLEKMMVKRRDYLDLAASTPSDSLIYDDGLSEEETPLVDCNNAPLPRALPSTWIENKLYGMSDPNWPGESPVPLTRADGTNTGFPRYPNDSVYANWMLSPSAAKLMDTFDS

By GI50 is commonly meant the concentration at which growth is held to half of that of the control. Lower therefore signals more potent growth inhibition. With `C[C@@H](c1ccc(-n2cccn2)nc1)N(C)c1ccc(-c2cc(OCC(C)(C)O)cn3ncc(C#N)c23)cn1` [Compound 58, (S)-4-(6-((1-(6-(1H-pyrazol-1-yl)pyridin-3-yl)ethyl)(methyl)amino)pyridin-3-yl)-6-(2-hydroxy-2-methylpropoxy)pyrazolo[1,5-a]pyridine-3-carbonitrile], the results for the pIC50 at RET and on VEGFR2 were 9.30 and 7.58, respectively. Besides, at Ba/F3-KIF5B-RET cell, the 50% growth inhibitory concentration (GI50) turned out to be 42.8 nM.

Consider `CCCNc1cc(-c2ccc(N(C)[C@@H](C)c3ccc(-n4cc(F)cn4)nc3)nc2)c2c(C#N)cnn2c1` [Compound 60], for which the values for the pIC50 at RET and at VEGFR2 were 9.01 and 7.36, respectively. The compound further showed a GI50 on Ba/F3-KIF5B-RET cell of 11.6 nM.

`C[C@@H](c1ccc(-n2cc(F)cn2)nc1)N(C)c1ccc(-c2cc(OCC(C)(C)O)cn3ncc(C#N)c23)cn1` [Compound 61, (S)-4-(6-((1-(6-(4-fluoro-1H-pyrazol-1-yl)pyridin-3-yl)ethyl)(methyl)amino)pyridine-3-yl)-6-(2-hydroxy-2-methylpropoxy)pyrazolo[1,5-a]pyridine-3-carbonitrile]: the pIC50 at RET was 9.32; on VEGFR2, 7.59. Also, the GI50 on Ba/F3-KIF5B-RET cell was determined as 1.53 nM.

`C[C@@H](c1ccc(N2CCCC2)nc1)N(C)c1ccc(-c2cc(OCC(C)(C)O)cn3ncc(C#N)c23)cn1` [Compound 62]: the pIC50 was 8.73 on RET and 6.76 at VEGFR2. Besides, it took 1030 nM to inhibit growth at Ba/F3-KIF5B-RET cell by half (GI50).

`CN(C(=O)c1ccc(N2CCCC2)nc1)c1ccc(-c2cc(OCC(C)(C)O)cn3ncc(C#N)c23)cn1` [Compound 64]: the values for the pIC50 on RET and at VEGFR2 were less than 6.30 and 5.61, respectively. At Ba/F3-KIF5B-RET cell, this compound displayed a concentration for 50% growth inhibition (GI50) of 1120 nM.
